These results are taken from patent US20180338980A1, “AROMATIC SULFONAMIDE DERIVATIVES” (BAYER PHARMA AKTIENGESELLSCHAFT, priority 2015, published 2018).

This experiment deals with T1, P2X4 (Homo sapiens, UniProt Q99571).
T1 sequence (Q99571 1-388): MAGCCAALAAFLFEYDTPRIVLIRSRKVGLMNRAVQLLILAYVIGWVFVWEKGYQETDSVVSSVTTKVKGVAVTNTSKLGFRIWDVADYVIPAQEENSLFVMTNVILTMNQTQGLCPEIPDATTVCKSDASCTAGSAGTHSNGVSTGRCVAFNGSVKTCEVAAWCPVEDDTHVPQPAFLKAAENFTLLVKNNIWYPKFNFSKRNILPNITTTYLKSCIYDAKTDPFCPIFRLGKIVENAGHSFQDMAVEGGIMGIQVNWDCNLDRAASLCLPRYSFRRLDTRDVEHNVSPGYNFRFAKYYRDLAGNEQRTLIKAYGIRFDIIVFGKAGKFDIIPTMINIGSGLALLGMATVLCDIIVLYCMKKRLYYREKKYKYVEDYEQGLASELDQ
Nature of the experiment: Assay B: human P2X4 receptor cell line, mitochondrial photina luminescence (agonist Bz-ATP at EC50). The class given is cell-based. More on the design: host or cells: HEK 293 (recombinant, constitutively expressing; with mitochondrial photina in Assay B). Conditions: HEK human P2X4 cell line, photina luminescence, agonist Bz-ATP at EC50, average; for Emax: read-out: human P2X4 Assay B avg Efficacy. The procedure:
The identification of agonists and antagonists of the P2X4 receptor from humans and […] also the quantification of the activity of the compounds of the invention was performed by use of recombinant cell lines. […] The test cell lines constitutively express the mouse or human P2X4 receptors. Stimulation of the receptors with an agonist leads to a conformational change of P2X4 and influx of extracellular calcium ions through the ion channel. The cytoplasmatic calcium transient is detected via the calcium sensitive dye Fluo8 for the mouse P2×4 cell line or in case of the human P2×4 cell line a stably expressed calcium-sensitive photoprotein, mitochondrial photina, which, after reconstitution with the cofactor coelenterazine, emits light in dependence of calcium binding [Bovolenta S, Foti M, Lohmer S, Corazza S., J Biomol Screen. […] The strength of Fluo8 fluorescence signal or photina luminescence signal corresponds to the level of receptor activation. An inhibitor would decrease the signal depending on its potency and concentration.
The resulting light signal is measured immediately in the luminometer.

Usually IC50 stands for the concentration that gives 50% inhibition. Consider `NS(=O)(=O)c1cc(NC(=O)Cc2ccc(C(F)(F)F)cc2)ccc1Oc1ccccc1OC(F)(F)F` [Example 072, N-{3-Sulfamoyl-4-[2-(trifluoromethoxy)phenoxy]phenyl}-2-[4-(trifluoromethyl)phenyl]acetamide], for which the IC50 stood at 2.96 µM and the Emax is 63%.

`NS(=O)(=O)c1cc(NC(=O)Cc2ccc(C(F)(F)F)cc2)ccc1Oc1ccccc1Cl` [Example 073, N-[4-(2-Chlorophenoxy)-3-sulfamoylphenyl]-2-[4-(trifluoromethyl)phenyl]acetamide]: the IC50 stood at 3.37 µM and the Emax came to 65%.

Consider `NS(=O)(=O)c1cc(NC(=O)Cc2ccccc2)ccc1Oc1ccccc1OC(F)(F)F` [Example 074, 2-Phenyl-N-{3-sulfamoyl-4-[2-(trifluoromethoxy)phenoxy]phenyl}acetamide], for which the IC50 was found to be 0.609 µM and the Emax stood at 52%.

Take `NS(=O)(=O)c1cc(NC(=O)Cc2ccccc2Cl)ccc1Oc1ccc[nH]c1=O` [Example 075, 2-(2-Chlorophenyl)-N-{4-[(2-oxo-1,2-dihydropyridin-3-yl)oxy]-3-sulfamoylphenyl}acetamide]: the IC50 was found to be 2.23 µM and the Emax came to 77%.

On to `NS(=O)(=O)c1cc(NC(=O)Cc2ccccc2)ccc1Oc1ccccc1Cl` [Example 076, N-[4-(2-Chlorophenoxy)-3-sulfamoylphenyl]-2-phenylacetamide], for which the Emax was determined as 74%.

Take `NS(=O)(=O)c1cc(NC(=O)Cc2ccccc2)ccc1Oc1cncc(Cl)c1` [Example 078, N-{4-[(5-Chloropyridin-3-yl)oxy]-3-sulfamoylphenyl}-2-phenylacetamide]: the IC50 turned out to be 0.706 µM and the Emax came out at 86%.

With `NS(=O)(=O)c1cc(NC(=O)Cc2cccc(F)c2)ccc1Oc1cccc(Cl)c1` [Example 084, N-[4-(3-Chlorophenoxy)-3-sulfamoylphenyl]-2-(3-fluorophenyl)acetamide], the IC50 was determined as 0.213 µM and the Emax amounted to 57%.

With `CC(C)c1ccccc1CC(=O)Nc1ccc(Oc2cccc(Cl)c2)c(S(N)(=O)=O)c1` [Example 087, N-[4-(3-Chlorophenoxy)-3-sulfamoylphenyl]-2-(2-isopropylphenyl)acetamide], the IC50 is 0.196 µM and the Emax worked out at 76%.

`CCOc1ccccc1CC(=O)Nc1ccc(Oc2cccc(Cl)c2)c(S(N)(=O)=O)c1` [Example 088, N-[4-(3-Chlorophenoxy)-3-sulfamoylphenyl]-2-(2-ethoxyphenyl)acetamide]: the IC50 was 0.19 µM and the Emax worked out at 75%.

For `NS(=O)(=O)c1cc(NC(=O)Cc2ccccc2SC(F)(F)F)ccc1Oc1cccc(Cl)c1` [Example 090, N-[4-(3-Chlorophenoxy)-3-sulfamoylphenyl]-2-{2-[(trifluoromethyl)sulfanyl]phenyl}acetamide], the IC50 stood at 0.442 µM and the Emax was 71%.

For the compound `Cc1ccncc1CC(=O)Nc1ccc(Oc2cccc(Cl)c2)c(S(N)(=O)=O)c1` [Example 092, N-[4-(3-Chlorophenoxy)-3-sulfamoylphenyl]-2-(4-methylpyridin-3-yl)acetamide], the IC50 came out at 3.44 µM and the Emax is 57%.

On to `NS(=O)(=O)c1cc(NC(=O)Cc2cccnc2Cl)ccc1Oc1cccc(Cl)c1` [Example 093, N-[4-(3-Chlorophenoxy)-3-sulfamoylphenyl]-2-(2-chloropyridin-3-yl)acetamide], for which the IC50 turned out to be 0.216 µM and the Emax turned out to be 68%.

As to `NS(=O)(=O)c1cc(NC(=O)C(F)(F)c2ccccc2Cl)ccc1Oc1cccc(Cl)c1` [Example 094, N-[4-(3-Chlorophenoxy)-3-sulfamoylphenyl]-2-(2-chlorophenyl)-2,2-difluoroacetamide], the IC50 turned out to be 0.2 µM and the Emax worked out at 74%.

As for `NS(=O)(=O)c1cc(NC(=O)Cc2ccccc2OC(F)(F)F)ccc1Oc1cccc(Cl)c1` [Example 105, N-[4-(3-Chlorophenoxy)-3-sulfamoylphenyl]-2-[2-(trifluoromethoxy)phenyl]acetamide], the IC50 was 0.203 µM and the Emax amounted to 75%.

Regarding `NS(=O)(=O)c1cc(NC(=O)C(F)(F)c2ccccc2)ccc1Oc1cccc(Cl)c1` [Example 106, N-[4-(3-Chlorophenoxy)-3-sulfamoylphenyl]-2,2-difluoro-2-phenylacetamide], the IC50 turned out to be 0.524 µM and the Emax is 42%.

Consider `NS(=O)(=O)c1cc(NC(=O)Cc2c(Cl)cccc2C(F)(F)F)ccc1Oc1cccc(Cl)c1` [Example 108, N-[4-(3-Chlorophenoxy)-3-sulfamoylphenyl]-2-[2-chloro-6-(trifluoromethyl)phenyl]acetamide], for which the IC50 was 0.175 µM and the Emax stood at 60%.

In the case of `NS(=O)(=O)c1cc(NC(=O)Cc2cc(C(F)(F)F)ccc2Cl)ccc1Oc1cccc(Cl)c1` [Example 109, N-[4-(3-Chlorophenoxy)-3-sulfamoylphenyl]-2-[2-chloro-5-(trifluoromethyl)phenyl]acetamide], the IC50 was 0.825 µM and the Emax was determined as 56%.

Regarding `NS(=O)(=O)c1cc(NC(=O)Cc2cnc(Cl)cc2Cl)ccc1Oc1cccc(Cl)c1` [Example 111, N-[4-(3-Chlorophenoxy)-3-sulfamoylphenyl]-2-(4,6-dichloropyridin-3-yl)acetamide], the IC50 amounted to 0.273 µM and the Emax was found to be 48%.

On to `NS(=O)(=O)c1cc(NC(=O)Cc2ncccc2Cl)ccc1Oc1cccc(Cl)c1` [Example 112, N-[4-(3-Chlorophenoxy)-3-sulfamoylphenyl]-2-(3-chloropyridin-2-yl)acetamide], for which the IC50 is 0.289 µM and the Emax turned out to be 60%.

In the case of `NS(=O)(=O)c1cc(NC(=O)Cc2cc(Cl)ccc2Cl)ccc1Oc1cccc(Cl)c1` [Example 114, N-[4-(3-Chlorophenoxy)-3-sulfamoylphenyl]-2-(2,5-dichlorophenyl)acetamide], the IC50 was determined as 0.305 µM and the Emax was 64%.

Take `NS(=O)(=O)c1cc(NC(=O)Cc2c(Cl)cc(C(F)(F)F)c(F)c2F)ccc1Oc1cccc(Cl)c1` [Example 115, 2-[6-Chloro-2,3-difluoro-4-(trifluoromethyl)phenyl]-N-[4-(3-chlorophenoxy)-3-sulfamoylphenyl]acetamide]: the IC50 amounted to 1.42 µM and the Emax is 54%.

Consider `Cc1cc(CC(=O)Nc2ccc(Oc3cccc(Cl)c3)c(S(N)(=O)=O)c2)c(Cl)cc1Br` [Example 118, 2-(4-Bromo-2-chloro-5-methylphenyl)-N-[4-(3-chlorophenoxy)-3-sulfamoylphenyl]acetamide], for which the IC50 turned out to be 1.89 µM and the Emax worked out at 61%.

In the case of `NS(=O)(=O)c1cc(NC(=O)Cc2ccncc2Cl)ccc1Oc1cccc(Cl)c1` [Example 119, N-[4-(3-Chlorophenoxy)-3-sulfamoylphenyl]-2-(3-chloropyridin-4-yl)acetamide], the IC50 was determined as 0.164 µM and the Emax is 64%.

Take `Cc1ccc(Cl)c(CC(=O)Nc2ccc(Oc3cccc(Cl)c3)c(S(N)(=O)=O)c2)c1F` [Example 121, 2-(6-Chloro-2-fluoro-3-methylphenyl)-N-[4-(3-chlorophenoxy)-3-sulfamoylphenyl]acetamide]: the IC50 was determined as 0.218 µM and the Emax stood at 62%.

As to `NS(=O)(=O)c1cc(NC(=O)Cc2cc(F)c(F)cc2Cl)ccc1Oc1cccc(Cl)c1` [Example 123, 2-(2-Chloro-4,5-difluorophenyl)-N-[4-(3-chlorophenoxy)-3-sulfamoylphenyl]acetamide], the concentration for half-maximal inhibition (IC50) stood at 0.369 µM and the Emax came out at 55%.

Regarding `NS(=O)(=O)c1cc(NC(=O)Cc2c(Cl)ccc(Cl)c2Cl)ccc1Oc1cccc(Cl)c1` [Example 125, N-[4-(3-Chlorophenoxy)-3-sulfamoylphenyl]-2-(2,3,6-trichlorophenyl)acetamide], the IC50 is 0.506 µM and the Emax is 97%.

In the case of `Cc1cc(Cl)c(CC(=O)Nc2ccc(Oc3cccc(Cl)c3)c(S(N)(=O)=O)c2)c(Cl)c1` [Example 126, N-[4-(3-Chlorophenoxy)-3-sulfamoylphenyl]-2-(2,6-dichloro-4-methylphenyl)acetamide], the IC50 was found to be 0.467 µM and the Emax was 81%.

As for `NS(=O)(=O)c1cc(NC(=O)Cc2c(C(F)(F)F)ccc(Cl)c2Cl)ccc1Oc1cccc(Cl)c1` [Example 127, N-[4-(3-chlorophenoxy)-3-sulfamoylphenyl]-2-[2,3-dichloro-6-(trifluoromethyl)phenyl]acetamide], the IC50 came out at 1.05 µM and the Emax worked out at 66%.

Turning to `N#Cc1ccccc1COc1ccc(NC(=O)Cc2ccccc2Cl)cc1S(N)(=O)=O` [Example 145, 2-(2-Chlorophenyl)-N-{4-[(2-cyanobenzyl)oxy]-3-sulfamoylphenyl}acetamide], the IC50 is 0.194 µM and the Emax is 72%.
